Tests used:
[1] = Drug recovery in plasma (unknown origin); type: ADME, cell-free
[2] = Dissociation constant, pKa of the compound; type: physicochemical
[3] = Unbound fraction in plasma (unknown origin) under normal atmospheric condition at pH 7.22 after 6 hrs by equilibrium dialysis method; type: ADME, cell-free
[4] = Unbound fraction in plasma (unknown origin) at pH 7.4 after 6 hrs by equilibrium dialysis method in presence of 5% CO2; type: ADME, cell-free
[5] = Unbound fraction in plasma (unknown origin) at pH 7.63 after 6 hrs by equilibrium dialysis method in presence of 5% CO2; type: ADME, cell-free
[6] = Unbound fraction in plasma (unknown origin) under normal atmospheric condition at pH 7.72 after 6 hrs by equilibrium dialysis method; type: ADME, cell-free

Compound: CN1C(=O)CN=C(c2ccccc2)c2cc(Cl)ccc21 [DIAZEPAM]
- Compound recovery [1]: > 70%

Compound: CC(=O)CC(c1ccccc1)c1c(O)c2ccccc2oc1=O (stereo not given) [WARFARIN]
- Compound recovery [1]: > 70%

Compound: CCn1nc(C(=O)O)c(=O)c2cc3c(cc21)OCO3 [CINOXACIN]
- pKa [2]: 4.7
- fraction unbound at 6 h [3]: 0.251
- fraction unbound at 6 h [4]: 0.214
- fraction unbound at 6 h [5]: 0.23
- fraction unbound at 6 h [6]: 0.266
- Compound recovery [1]: > 70%

Compound: CC(CN(C)C)CN1c2ccccc2CCc2ccccc21 (stereo not given) [TRIMIPRAMINE]
- pKa [2]: 8.4
- fraction unbound at 6 h [3]: 0.106
- fraction unbound at 6 h [4]: 0.054
- fraction unbound at 6 h [5]: 0.052
- fraction unbound at 6 h [6]: 0.037
- Compound recovery [1]: > 70%

Compound: COc1ccc([C@@H]2Sc3ccccc3N(CCN(C)C)C(=O)[C@@H]2OC(C)=O)cc1 [DILTIAZEM]
- pKa [2]: 8
- fraction unbound at 6 h [3]: 0.417
- fraction unbound at 6 h [4]: 0.349
- fraction unbound at 6 h [5]: 0.35
- fraction unbound at 6 h [6]: 0.298
- Compound recovery [1]: > 70%

Compound: N[C@@H]1C[C@H]1c1ccccc1.N[C@H]1C[C@@H]1c1ccccc1 (racemic) [TRANYLCYPROMINE]
- pKa [2]: 8.2
- fraction unbound at 6 h [3]: 0.63
- fraction unbound at 6 h [4]: 0.612
- fraction unbound at 6 h [5]: 0.53
- fraction unbound at 6 h [6]: 0.49
- Compound recovery [1]: > 70%

Compound: NC(=O)N1c2ccccc2C=Cc2ccccc21 [CARBAMAZEPINE]
- fraction unbound at 6 h [3]: 0.303
- fraction unbound at 6 h [4]: 0.291
- fraction unbound at 6 h [5]: 0.288
- fraction unbound at 6 h [6]: 0.299
- Compound recovery [1]: > 70%

Compound: Cc1nc2n(c(=O)c1CCN1CCC(c3noc4cc(F)ccc34)CC1)CCCC2 [RISPERIDONE]
- fraction unbound at 6 h [3]: 0.276
- fraction unbound at 6 h [4]: 0.186
- fraction unbound at 6 h [5]: 0.222
- fraction unbound at 6 h [6]: 0.163
- Compound recovery [1]: > 70%

Compound: C=C[C@H]1C[N@@]2CC[C@H]1C[C@@H]2[C@@H](O)c1ccnc2ccc(OC)cc12 [QUINIDINE]
- Compound recovery [1]: > 70%

Compound: O=C(CCCN1CCC(O)(c2ccc(Cl)cc2)CC1)c1ccc(F)cc1 [HALOPERIDOL]
- fraction unbound at 6 h [3]: 0.223
- fraction unbound at 6 h [4]: 0.161
- fraction unbound at 6 h [5]: 0.164
- fraction unbound at 6 h [6]: 0.124
- Compound recovery [1]: > 70%

Compound: CN(C)CCCN1c2ccccc2CCc2ccccc21 [IMIPRAMINE]
- fraction unbound at 6 h [3]: 0.22
- fraction unbound at 6 h [4]: 0.181
- fraction unbound at 6 h [5]: 0.172
- fraction unbound at 6 h [6]: 0.105
- Compound recovery [1]: > 70%

Compound: CN1CCN2c3ncccc3Cc3ccccc3C2C1 (stereo not given) [MIRTAZAPINE]
- fraction unbound at 6 h [3]: 0.32
- fraction unbound at 6 h [4]: 0.286
- fraction unbound at 6 h [5]: 0.266
- fraction unbound at 6 h [6]: 0.16
- Compound recovery [1]: > 70%

Compound: CN1CCN(C2=Nc3cc(Cl)ccc3Nc3ccccc32)CC1 [CLOZAPINE]
- fraction unbound at 6 h [3]: 0.101
- fraction unbound at 6 h [4]: 0.081
- fraction unbound at 6 h [5]: 0.058
- fraction unbound at 6 h [6]: 0.042
- Compound recovery [1]: > 70%

Compound: COC(=O)C1=C(C)NC(C)=C(C(=O)OCCN(C)Cc2ccccc2)C1c1cccc([N+](=O)[O-])c1 (stereo not given) [NICARDIPINE]
- pKa [2]: 7.2
- fraction unbound at 6 h [3]: 0.008
- fraction unbound at 6 h [4]: 0.005
- fraction unbound at 6 h [5]: 0.008
- fraction unbound at 6 h [6]: 0.003
- Compound recovery [1]: > 70%

Compound: COc1ccc(CCN(C)CCCC(C#N)(c2ccc(OC)c(OC)c2)C(C)C)cc1OC (stereo not given)
- Compound recovery [1]: > 70%

Compound: Fc1ccc([C@@H]2CCNC[C@H]2COc2ccc3c(c2)OCO3)cc1 [PAROXETINE]
- pKa [2]: 9.5
- fraction unbound at 6 h [3]: 0.136
- fraction unbound at 6 h [4]: 0.099
- fraction unbound at 6 h [5]: 0.089
- fraction unbound at 6 h [6]: 0.074
- Compound recovery [1]: > 70%

Compound: Cc1ncc2n1-c1ccc(Cl)cc1C(c1ccccc1F)=NC2 [MIDAZOLAM]
- pKa [2]: 9
- fraction unbound at 6 h [3]: 0.034
- fraction unbound at 6 h [4]: 0.036
- fraction unbound at 6 h [5]: 0.041
- fraction unbound at 6 h [6]: 0.019
- Compound recovery [1]: 63%

Compound: CNCCC(Oc1ccc(C(F)(F)F)cc1)c1ccccc1 (stereo not given) [FLUOXETINE]
- fraction unbound at 6 h [3]: 0.079
- fraction unbound at 6 h [4]: 0.056
- fraction unbound at 6 h [5]: 0.063
- fraction unbound at 6 h [6]: 0.04
- Compound recovery [1]: > 70%

Compound: O=C(O)Cc1ccccc1Nc1c(Cl)cccc1Cl [DICLOFENAC]
- Compound recovery [1]: > 70%

Compound: CC(C)NCC(O)COc1cccc2ccccc12 (stereo not given) [PROPRANOLOL]
- fraction unbound at 6 h [3]: 0.315
- fraction unbound at 6 h [4]: 0.231
- fraction unbound at 6 h [5]: 0.213
- fraction unbound at 6 h [6]: 0.216
- Compound recovery [1]: > 70%

Compound: O=C1CC2(CCCC2)CC(=O)N1CCCCN1CCN(c2ncccn2)CC1 [BUSPIRONE]
- pKa [2]: 7.3
- Compound recovery [1]: > 70%

Compound: CCN(CC)C(=O)C1(c2ccccc2)CC1CN (stereo not given)
- pKa [2]: 9.7
- fraction unbound at 6 h [3]: 0.809
- fraction unbound at 6 h [4]: 0.837
- fraction unbound at 6 h [5]: 0.777
- fraction unbound at 6 h [6]: 0.828
- Compound recovery [1]: > 70%

— ChEMBL document CHEMBL3526113, “Control and measurement of plasma pH in equilibrium dialysis: influence on drug plasma protein binding” (Drug Metab Dispos, 2011)
